Experimental data: patent US5643954A, “Method of preventing and alleviating stress in a healthy mammal in need thereof” (priority 1993, dated 1997)
Like-named read-outs stand apart in the source and are kept apart here.

Assays:
[1] = for Number of errors per 500 symbols: M ± m
Experimental: Examination of the mental capacity dynamics of the tested was performed in two stages.

EEG = settings: for Biopotential slow form amplitude / Expression of biopotential slow forms / Expression of pathologically acute waves and peaked oscillation / Expression of α-rhythm / Paroxysmal bursts / α-frequency / α-oscillation amplitude / β-rhythm amplitude / β-rhythm expression / β-rhythm, low-frequency expression: M
Corazol twitch paroxysm = settings: for Threshold doses Corazol 1% solution, death of animal / Threshold doses Corazol 1% solution, start of twitch: M ± m
[2] = system: electric painful irritation; settings: 60 min before experiment
[3] = after dose, M ± m
[4] = remark: listed apart in the source
Experimental: The examination of attention was performed by using Schulte test which provides for a square chart produced before a patient (tested) that is divided into 49 squares containing confusedly arranged red and black numbers (24 and 25, respectively). The numbers are sought in the chart in strict order, say, red ones in increasing order and black ones in decreasing order, and along with this, the time is fixed for execution of the entire assignment, the time of search of each and every figure and the number of mistakes. The test makes it possible to assess attention and reveal the persons having enhanced emotional responses.
To study the state of short-lived memory, use was made of a test based on reproduction of 10 two-digit numbers shown on the screen for 20 sec. […] Sensomotor reactions were evaluated with the aid of a visual-motor reaction (differentiation of optical signals from 20 applications).

[5] = system: bioelectric activity of rats' brain; test: spontaneous bioelectrical activity of rats' brain (EEG, implanted electrodes); assay type: in vivo; design: Amplitude, slow activ. / Amplitude, fast activ.: unit not given here; settings: for Amplitude, fast activ. / Amplitude, slow activ.: M ± m
phenamine stereotypy = settings: M ± m
[6] = system: rat's seminal effervesce (adrenaline); settings: for Amplitude of concentration in % to control / Amplitude of concentration: adrenaline; for Amplitude of concentration: M ± m
Experimental: (§1) Experiments were conducted in vivo on male mice weighing 18-22 g and male rats weighing 200-250 g, as well as in vitro on the isolated organs: a guinea pig's ileum and a rat's seminal effervesces.

[7] = system: guinea pig's ileum (acetylcholine); settings: for Amplitude of concentration in % to control / Amplitude of concentration: acetylcholine; for Amplitude of concentration: M ± m
Experimental: as §1

apomorphine stereotypy = settings: M ± m
[8] = week's fourth day, after classes
[9] = week's fourth day, before classes, after dose
[10] = week's second day, after classes
[11] = week's second day, before classes, after dose
[12] = after the exams, after taking, M ± m
[13] = lab conditions, after taking, after testing, M ± m
[14] = 40 mg/kg week-long introduction
[15] = 200 mg/kg single administration
[16] = after taking the preparation, M ± m

What does the source list for aminoacetic acid [claimed preparation]?
Work without mistakes [1, 8]: 14.3%; Number of errors per 500 symbols [1, 8]: 8.4 ± 1.2; Work without mistakes [1, 9]: 28.6%; Number of errors per 500 symbols [1, 9]: 7.6 ± 1.9; Work without mistakes [1, 10]: 25.0%; Number of errors per 500 symbols [1, 10]: 7.8 ± 1.8; Work without mistakes [1, 11]: 16.5%; Number of errors per 500 symbols [1, 11]: 6.5 ± 1.6; Arterial pressure, diastolic [12]: 65.7 ± 1.5 mm Hg; Arterial pressure, systolic [12]: 112.8 ± 2.8 mm Hg; Pulse frequency [12]: 72.8 ± 2.3 spec./min.; change in pulse rate and arterial pressure (heightened nerve-psychic agitation, in words): eliminates a change in a pulse rate and arterial pressure; Arterial pressure, diastolic (in vivo): 69.3 ± 1.3 mm Hg; Arterial pressure, systolic (in vivo): 110.2 ± 1.7 mm Hg; Pulse frequency (in vivo): 76.8 ± 1.4 spec./min.; Arterial pressure, diastolic [13]: 69.2 ± 1.1 mm Hg; Arterial pressure, systolic [13]: 107.7 ± 1.5 mm Hg; Pulse frequency [13]: 78.1 ± 1.4 spec./min.; EEG variation a) (EEG; 1,5 hrs after a dose): 2.89 arbitrary units; EEG variation b) (EEG; 1,5 hrs after a dose): 2.79 arbitrary units; Biopotential slow form amplitude (EEG; 1,5 hrs after a dose): 41.40 mV; Expression of biopotential slow forms (EEG; 1,5 hrs after a dose): 2.85 arbitrary units; Expression of pathologically acute waves and peaked oscillation (EEG; 1,5 hrs after a dose): 1.71 arbitrary units; Expression of α-rhythm (EEG; 1,5 hrs after a dose): 4.89 arbitrary units; Paroxysmal bursts (EEG; 1,5 hrs after a dose): 2.21 arbitrary units; α-frequency (EEG; 1,5 hrs after a dose): 10.60 Hertz; α-oscillation amplitude (EEG; 1,5 hrs after a dose): 105.70 mV; β-rhythm amplitude (EEG; 1,5 hrs after a dose): 13.60 mV; β-rhythm expression (EEG; 1,5 hrs after a dose): 2.14 arbitrary units; β-rhythm, low-frequency expression (EEG; 1,5 hrs after a dose): 1.21 arbitrary units; EEG variation a) (EEG; after two-week course): 3.00 arbitrary units; EEG variation b) (EEG; after two-week course): 2.42 arbitrary units; Biopotential slow form amplitude (EEG; after two-week course): 44.20 mV; Expression of biopotential slow forms (EEG; after two-week course): 3.60 arbitrary units; Expression of pathologically acute waves and peaked oscillation (EEG; after two-week course): 1.93 arbitrary units; Expression of α-rhythm (EEG; after two-week course): 4.54 arbitrary units; Paroxysmal bursts (EEG; after two-week course): 3.00 arbitrary units; α-frequency (EEG; after two-week course): 10.40 Hertz; α-oscillation amplitude (EEG; after two-week course): 95.00 mV; β-rhythm amplitude (EEG; after two-week course): 16.40 mV; β-rhythm expression (EEG; after two-week course): 2.07 arbitrary units; β-rhythm, low-frequency expression (EEG; after two-week course): 1.29 arbitrary units; EEG-based activity (EEG; all examined EEG indicators, in words): has nootropic activity; Threshold doses Corazol 1% solution, death of animal (Corazol twitch paroxysm; 2 mg/kg single administration): 0.119 ± 0.006 mL; Threshold doses Corazol 1% solution, start of twitch (Corazol twitch paroxysm; 2 mg/kg single administration): 0.095 ± 0.004 mL; Threshold doses Corazol 1% solution, death of animal (Corazol twitch paroxysm; 2 mg/kg week-long introduction): 0.119 ± 0.004 mL; Threshold doses Corazol 1% solution, start of twitch (Corazol twitch paroxysm; 2 mg/kg week-long introduction): 0.090 ± 0.007 mL; Threshold doses Corazol 1% solution, death of animal (Corazol twitch paroxysm; 40 mg/kg single administration): 0.130 ± 0.006 mL; Threshold doses Corazol 1% solution, start of twitch (Corazol twitch paroxysm; 40 mg/kg single administration): 0.091 ± 0.005 mL; Threshold doses Corazol 1% solution, death of animal (Corazol twitch paroxysm; [14]): 0.163 ± 0.005 mL; Threshold doses Corazol 1% solution, start of twitch (Corazol twitch paroxysm; [14]): 0.095 ± 0.005 mL; Threshold doses Corazol 1% solution, death of animal (Corazol twitch paroxysm; 80 mg/kg single administration): 0.135 ± 0.007 mL; Threshold doses Corazol 1% solution, start of twitch (Corazol twitch paroxysm; 80 mg/kg single administration): 0.095 ± 0.004 mL; Threshold doses Corazol 1% solution, death of animal (Corazol twitch paroxysm; [15]): 0.130 ± 0.08 mL; Threshold doses Corazol 1% solution, start of twitch (Corazol twitch paroxysm; [15]): 0.096 ± 0.007 mL; Corazol threshold dosage (Corazol twitch paroxysm; in words): somewhat increasing a Corazol threshold dosage; emotional reaction (squeak) [2]: did not exert influence on an emotional reaction; increase of aggression reaction threshold [2]: 5±0.8 v; number of fights [2]: reduced the number of fights; strengthening of motor component (jumps) [2]: 1-1.5 points; AMo/Δx ([3]; after testing): 94.8 ± 4.1; Amo ([3]; after testing): 36.4 ± 2.2%; Mo ([3]; after testing): 0.74 ± 0.03 s; Δx ([3]; after testing): 0.38 ± 0.01 s; AMo/Δx ([3]; prior to tests): 83.8 ± 4.0; Amo ([3]; prior to tests): 32.0 ± 2.0%; Mo ([3]; prior to tests): 0.75 ± 0.03 s; Δx ([3]; prior to tests): 0.39 ± 0.01 s; cases with increased volume of short-lived memory ([4]; 2 mg/kg one time): 58.9%; cases with subjective and objective improvement of general state ([4]; 2 mg/kg one time): 87.2%; students with reduction of latent period of visual-motor reaction and number of differentiation disruptions ([4]; 2 mg/kg one time): 56.4%; tested whose short-lived memory did not worsen and remained on the initial level ([4]; 2 mg/kg one time): 25.7%; increase of volume of short-lived memory ([4]; 2 mg/kg one time, average): 25%; attention ([4]; 2 mg/kg one time, in words): reducing the attention switching time and the number of mistakes made; Attention switching number of errors [4, 16]: 3.20 ± 0.39; Attention switching time [4, 16]: 95.39 ± 6.11 s; Shortlived memory [4, 16]: 46.92 ± 2.58 nom. units; Visual-motor reaction differentiation disruption [4, 16]: 0.46 ± 0.13 nominal units; Visual-motor reaction latent period [4, 16]: 0.51 ± 0.01 min; Amplitude, fast activ. ([5]; 2 mg/kg): 325 ± 24; Amplitude, slow activ. ([5]; 2 mg/kg): 315 ± 14; Maximal effect appearance time from the start of experiment ([5]; 40 mg/kg): 70 min; Nature of effect ([5]; 40 mg/kg): episodic; Nature of effect, episodes ([5]; 40 mg/kg): 1-2 episodes per hr; synchronizing effect on encephalogram ([5]; 40 mg/kg intraperitoneally): tends to call for a synchronizing effect on an encephalogram; Amplitude, fast activ. ([5]; 40 mg/kg): 243 ± 10; Amplitude, slow activ. ([5]; 40 mg/kg): 380 ± 21; phenamine duration of stereotypy (phenamine stereotypy; 2 mg/kg): 65.0 ± 2.5 min; phenamine latent period (phenamine stereotypy; 2 mg/kg): 110.0 ± 2.6 s; phenamine duration of stereotypy (phenamine stereotypy; 40 mg/kg): 62.0 ± 1.6 min; phenamine latent period (phenamine stereotypy; 40 mg/kg): 115.0 ± 1.5 s; phenamine duration of stereotypy (phenamine stereotypy; 200 mg/kg): 62.0 ± 2.1 min; phenamine latent period (phenamine stereotypy; 200 mg/kg): 120.0 ± 2.8 s; Amplitude of concentration in % to control ([6]; 1·10^-4 M, 100 µM): 65,5%; Amplitude of concentration ([6]; 1·10^-4 M): 45.0 ± 0.6 mm; Amplitude of concentration in % to control ([6]; 1·10^-5 M, 10 µM): 83%; adrenoblocking action ([6]; 1·10^-5 and 1·10^-4 M): weak and mild adrenoblocking action; Amplitude of concentration in % to control ([6]; 1·10^-6 M, 1 µM): 94%; Amplitude of concentration ([6]; 1·10^-6 M): 65.0 ± 1.2 mm; contracting responses to adrenaline ([6]; in words): suppresses the contracting responses; Amplitude of concentration in % to control ([7]; 1·10^-4 M, 100 µM): 89%; Amplitude of concentration ([7]; 1·10^-4 M): 97.0 ± 1.5 mm; Amplitude of concentration in % to control ([7]; 1·10^-5 M, 10 µM): 99%; Amplitude of concentration ([7]; 1·10^-5 M): 105.0 ± 1.8 mm; Amplitude of concentration in % to control ([7]; 1·10^-6 M, 1 µM): 109%; Amplitude of concentration ([7]; 1·10^-6 M): 116.0 ± 2.4 mm; antagonism with acetylcholine ([7]; in words): without discovering antagonism with said acetylcholine; apomorphine duration of stereotypy (apomorphine stereotypy; 2 mg/kg): 20.0 ± 0.9 min; apomorphine latent period (apomorphine stereotypy; 2 mg/kg): 98.0 ± 1.5 s; apomorphine duration of stereotypy (apomorphine stereotypy; 40 mg/kg): 22.0 ± 0.6 min; apomorphine latent period (apomorphine stereotypy; 40 mg/kg): 104.0 ± 0.9 s; apomorphine duration of stereotypy (apomorphine stereotypy; 200 mg/kg): 20.0 ± 0.5 min; apomorphine latent period (apomorphine stereotypy; 200 mg/kg): 95.5 ± 0.8 s
